The supplement of paper PMC13380429

Assays:
Settings in all cases: 72 h
HepG2 [1] = assay: relative viability EC50 (midpoint between 100% and the lowest measured viability); higher = less toxic
Calu-3 [2] = assay: as above
U2OS [3] = assay: as above
Vero E6 [4] = assay: as above
Caco-2 [5] = assay: drug sensitivity score (DSS) for viability; higher = more toxic; extreme values may be limits of the assay
HepG2 [6] = assay: as above
Calu-3 [7] = assay: as above
U2OS [8] = assay: as above
Vero E6 [9] = assay: as above
Caco-2 [10] = assay: cell viability relative to DMSO; higher = less toxic
HepG2 [11] = assay: as above
Calu-3 [12] = assay: as above
U2OS [13] = assay: as above
Vero E6 [14] = assay: as above
Caco-2 [15] = assay: relative viability EC50 (midpoint between 100% and the lowest measured viability); higher = less toxic

Compound | relative viability EC50 (HepG2 [1]) [µM] | relative viability EC50 (Calu-3 [2]) [µM] | relative viability EC50 (U2OS [3]) [nM] | relative viability EC50 (Vero E6 [4]) [µM] | drug sensitivity score (Caco-2 [5]) | drug sensitivity score (HepG2 [6]) | drug sensitivity score (Calu-3 [7]) | drug sensitivity score (U2OS [8]) | drug sensitivity score (Vero E6 [9]) | cell viability (Caco-2 [10]; 1 nM) [%] | cell viability (Caco-2 [10]; 10 nM) [%] | cell viability (Caco-2 [10]; 100 nM) [%] | cell viability (Caco-2 [10]; 1000 nM) [%] | cell viability (Caco-2 [10]; 10000 nM) [%] | cell viability (HepG2 [11]; 1 nM) [%] | cell viability (HepG2 [11]; 10 nM) [%] | cell viability (HepG2 [11]; 100 nM) [%] | cell viability (HepG2 [11]; 1000 nM) [%] | cell viability (HepG2 [11]; 10000 nM) [%] | cell viability (Calu-3 [12]; 1 nM) [%] | cell viability (Calu-3 [12]; 10 nM) [%] | cell viability (Calu-3 [12]; 100 nM) [%] | cell viability (Calu-3 [12]; 1000 nM) [%] | cell viability (Calu-3 [12]; 10000 nM) [%] | cell viability (U2OS [13]; 1 nM) [%] | cell viability (U2OS [13]; 10 nM) [%] | cell viability (U2OS [13]; 100 nM) [%] | cell viability (U2OS [13]; 1000 nM) [%] | cell viability (U2OS [13]; 10000 nM) [%] | cell viability (Vero E6 [14]; 1 nM) [%] | cell viability (Vero E6 [14]; 10 nM) [%] | cell viability (Vero E6 [14]; 100 nM) [%] | cell viability (Vero E6 [14]; 1000 nM) [%] | cell viability (Vero E6 [14]; 10000 nM) [%] | relative viability EC50 (Caco-2 [15]) [µM]
O=C(NC1(c2ccccc2)CC1)c1c(CN2CCC(N3CCCCC3)CC2)c(-c2cccc(C(F)(F)F)c2)nc2cc(Br)ccc12 | 3.4 | 2.02 | 2810 | 3.09 | 2.5 | 2.7 | 7.8 | 5.2 | 3.4 | 95.4 | 88.3 | 112 | 98.8 | 55.2 | 93.6 | 101 | 104 | 102 | 45.4 | 97.1 | 90.2 | 96 | 85.8 | 1.2 | 98.5 | 95.1 | 101 | 96 | 15.7 | 93.3 | 98.3 | 102 | 99.3 | 38.4 | 
O=C1NC(=O)/C(=C/c2ccc(-c3ccc(F)cc3O)o2)S1 | > 10 | > 10 | > 10000 | > 10 | 0.9 | 0 | 1 | 0 | 0.5 | 94 | 103 | 96.3 | 105 | 72.5 | 96.2 | 96.2 | 95.9 | 96.6 | 106 | 116 | 109 | 102 | 98.2 | 77 | 103 | 101 | 91 | 104 | 91.2 | 102 | 100 | 99.3 | 100 | 81.2 | 
O=c1cc(-c2cccc3c2Sc2ccccc2S3)oc(N2CCOCC2)c1 | > 10 | > 10 | > 10000 | > 10 | 2.5 | 0.1 | 0 | 0 | 0.2 | 103 | 102 | 98.2 | 93.3 | 67.8 | 104 | 102 | 93.5 | 108 | 85.9 | 100 | 98.9 | 98.2 | 104 | 106 | 99.8 | 99.6 | 102 | 100 | 93.3 | 97.5 | 102 | 101 | 106 | 83.3 | 
Nc1nccc2c1ncn2[C@@H]1O[C@H](CO)[C@@H](O)[C@@H]1O [3-deazaadenosine] | > 10 |  | > 10000 | > 10 | 0 | 0 |  | 0 | 0 | 89.8 | 101 | 97.9 | 89.2 | 97 | 97.9 | 103 | 95.6 | 97.3 | 96.1 |  |  |  |  |  | 99.9 | 99.4 | 97.7 | 103 | 95.8 | 87.4 | 100 | 90.8 | 92.8 | 95.1 | > 10
CCC(=O)N[C@@H]1Cc2ccccc2[C@H](c2ccccc2)C1 [4-P-PDOT] | > 10 | > 10 |  | > 10 | 0 | 0 | 0 |  | 0 | 103 | 95.4 | 100 | 95.1 | 94.4 | 106 | 111 | 99 | 88.9 | 108 | 105 | 94.6 | 104 | 114 | 102 |  |  |  |  |  | 95.9 | 97.4 | 100 | 96.1 | 98.5 | > 10
O=c1cccc2n1C[C@H]1C[C@@H]2CN(CCN2C[C@@H]3C[C@H](C2)c2cccc(=O)n2C3)C1 [CC4] | > 10 | > 10 |  | > 10 | 0 | 0 | 0 |  | 0 | 98.2 | 100 | 91.4 | 93.1 | 98.3 | 91.3 | 91.9 | 93.9 | 97.4 | 93.4 | 87.1 | 104 | 101 | 119 | 104 |  |  |  |  |  | 97.4 | 94.6 | 98.8 | 92.8 | 101 | > 10
Cc1sc2c(c1C)C(c1ccc(Cl)cc1)=N[C@@H](CC(N)=O)c1nnc(C)n1-2 [CPI-203] | 0.186 |  | 302 | 0.172 | 4.7 | 13.2 | 4.7 | 9.3 | 18.6 | 100 | 95.8 | 88.9 | 76.3 | 70.5 | 91.8 | 94.3 | 81.3 | 40.2 | 35.2 | 98.3 | 105 | 100 | 78.3 | 60 | 93.9 | 94.4 | 86.1 | 57.9 | 43.6 | 96.4 | 93.9 | 73.7 | 15.4 | 11 | 
Cc1noc2c1-c1ccccc1C(c1ccc(Cl)cc1)=N[C@H]2CC(N)=O [CPI-0610] | 1.02 |  | 1420 | 0.449 | 1.2 | 5.9 | 3.2 | 5.1 | 13 | 104 | 108 | 106 | 94.5 | 80.6 | 109 | 111 | 101 | 75.2 | 49.4 | 103 | 99.7 | 105 | 90 | 64.7 | 105 | 108 | 97.3 | 84.1 | 47.6 | 111 | 108 | 88.4 | 38.5 | 16.2 | > 10
